# From PMC8672774, “Discovery of cell active macrocyclic peptides with on-target inhibition of KRAS signaling” (Chemical Science, 2021)
# Experiments:
# [1] = system: MAPK and PI3K signaling in A375 cells (BRAF^V600E); experiment: Western blot of MAPK and PI3K signaling in A375 cells; type: cell-based
# Experimental: (§1) Western Blotting: Cells were seeded in 24-well poly-D-lysine coated plates and treated with the indicated peptides the next day. Following incubation, 100 μl of 1X Bolt™ LDS sample buffer supplemented with NuPAGE® sample reducing agent was added. Wells were scrapped using wide orifice
# bath sonicator (QSonica).
# (§2) onto nitrocellulose membranes using the Trans-Blot® Turbo™ semi-dry sy s te m ( Bio -rad), and blocked for 1 hour at room temperature with tris-buffered saline (TBS) Odyssey blocking buffer (Li- Cor). Blots were probed with the appropriate primary antibodies overnight at 4°C in Odyssey blocking buffer supplemented with 0.1% Tween-20, followed by the secondary antibodies IRDye® 680RD donkey anti-mouse IgG or IRDye® 800CW donkey anti-rabbit IgG (Li- Cor) for 1 hour at room temperature.
# (§3) Fluorescent signals were imaged and quantified using Odyssey® CLx. Primary antibodies used were:
# [2] = system: MAPK and PI3K signaling in SK-MEL-28 cells (BRAF^V600E); experiment: Western blot of MAPK and PI3K signaling in SK-MEL-28 cells; type: cell-based
# Experimental: as §1
# bath sonicator (QSonica).
# as §2, §3
# in vitro = settings: human
# rat mast cells = experiment: Ex vivo rat mast cell degranulation and histamine release assay; settings: for activation of mast cell degranulation (histamine release), in words: ex vivo, rat mast cells; for rMCD histamine release threshold: lowest concentration at which histamine release was observed, rat peritoneal mast cells, 30 min
# Experimental: The reported rat mast cell degranulation (rMCD) value in Table 4 is a threshold for the lowest concentration at which a two-fold change in histamine release was observed.
# In Vitro Rat M ast Cell Degranulation and H istamine Release Ass ess m ent: Peritoneal lavage was isolated
# from Wister- Han rats as described in literature. In brief, animals were anesthetized with xylene followed
# by an injection of about 10 mL of Tyrode buffer (12 mM NaHCO3, 127 mM NaCl, 5 mM KCl, 0.5 mM
# NaH2PO4, 1 mM MgCl2, 5 mM Glucose and 10 mM HEPES, pH 7.4) into the peritoneal cavity. After a
# gentle abdomen massage, peritoneal lavage was collected and centrifuged at 350 x g for 5 minutes. Cell
# pellets were resuspended in Tyrode buffer with 10% heat inactivated rat serum to reach a final
# Freshly isolated rat peritoneal cells were aliquoted to a 96 well tissue-
# culture plate (100 µL per well).
# peptides for 30 minutes at 37°C. After incubation, the plate was centrifuged at 350 x g for 2 minutes at
# room temperature. Supernatant were collected and histamine concentration was measured by ELISA
# (Neogen, Lansing, MI) following vendor’s instructions. Amount of histamine in the supernatant was
# presented as ng/mL. A detection of histamine release was defined as the histamine concentration in
# from 10 vehicle-control treated samples from the same animal). The lowest concentration that a
# [3] = system: pERK and pAKT in AsPC-1 cells; experiment: Western blot of KRAS signaling (pERK, pAKT) in AsPC-1 cells; type: cell-based; settings: 1 hour and 16 hour time-points
# Experimental: as §1
# bath sonicator (QSonica).
# as §2, §3
# (D14E12) (Cell Signaling Technology, #8 24 2), phospho-IκBα (Ser32) (Cell Signaling Technology, #2 85 9) , IκBα (L35A5) (Cell Signaling Technology, #4 81 4) , NanoLuc (Promega, N7000) and pan-RAS (Sigma,
# mM PMSF and Co mplete™ EDTA-free protease inhibitor cocktail (Roche) for 30 min with intermittent
half-life at 1 µM (in vitro; HeLa cell homogenate) [h],SMILES,rMCD histamine release threshold (rat mast cells) [µM],also measured
,"CC[C@H](C)[C@@H]1NC(=O)[C@H](Cc2ccc(O)cc2)NC(=O)[C@H](CC(C)C)NC(=O)[C@@H]2CCCN2C(=O)[C@H](NC(=O)[C@@H](CCCNC(=N)N)NC(=O)[C@@H](CCCNC(=N)N)NC(=O)[C@@H](CCCNC(=N)N)NC(=O)[C@@H](CCCNC(=N)N)NC(=O)[C@H](CCCCN=[N+]=[N-])NC(C)=O)CSCSC[C@@H](C(=O)N[C@H](CCCNC(=N)N)C(=O)N[C@H](CCCNC(=N)N)C(=O)N[C@H](CCCNC(=N)N)C(=O)N[C@H](CCCNC(=N)N)C(N)=O)NC(=O)[C@H](C(C)C)NC(=O)[C@@H]2CCCN2C(=O)[C@@H](CC(=O)O)NC(=O)[C@H](Cc2ccc(O)cc2)NC(=O)[C@H](CO)NC1=O [MP-9658, Ac-K(N3)-rrrr-cyclo(c(methylene)PLYISYdPVC)-rrrr-NH2]",,inhibition of MAPK signaling in A375 [1]: inactive; inhibition of MAPK signaling in SK-MEL-28 [2]: inactive
2.57,CC[C@H](C)[C@@H]1NC(=O)[C@H](Cc2ccc(O)cc2)NC(=O)[C@H](CC(C)C)NC(=O)[C@@H]2CCCN2C(=O)[C@H](NC(=O)[C@H](CCCNC(=N)N)NC(=O)[C@H](CCCNC(=N)N)NC(=O)[C@H](CCCCN=[N+]=[N-])NC(C)=O)CSCSC[C@@H](C(=O)N[C@@H](CCCNC(=N)N)C(=O)N[C@@H](CCCNC(=N)N)C(N)=O)NC(=O)[C@H](C(C)C)NC(=O)[C@@H]2CCCN2C(=O)[C@H](CC(=O)O)NC(=O)[C@H](Cc2ccc(O)cc2)NC(=O)[C@](C)(CO)NC1=O [Compound 17],,
,"Cc1ccc(NC(=O)c2cccc(C(C)(C)C#N)c2)cc1Nc1ccc2ncn(C)c(=O)c2c1 [AZ628, reference compound]",,inhibition of MAPK signaling in A375 [1]: inhibited MAPK signaling; inhibition of MAPK signaling in SK-MEL-28 [2]: inhibited MAPK signaling
,CC[C@H](C)[C@@H]1NC(=O)[C@H](Cc2ccc(O)cc2)NC(=O)[C@H](CC(C)C)NC(=O)[C@@H]2CCCN2C(=O)[C@H](NC(=O)[C@H](CCCCN=[N+]=[N-])NC(C)=O)CSCSC[C@@H](C(=O)N[C@@H](CCCNC(=N)N)C(N)=O)NC(=O)[C@H](C(C)C)NC(=O)[C@@H]2CCCN2C(=O)[C@H](CC(=O)O)NC(=O)[C@H](Cc2ccc(O)cc2)NC(=O)[C@H](CO)NC1=O [Compound 24],>100,"activation of mast cell degranulation (histamine release), in words (rat mast cells): free from this potential liability"
0.683,CC[C@H](C)[C@@H]1NC(=O)[C@H](Cc2ccc(O)cc2)NC(=O)[C@H](CC(C)C)NC(=O)[C@@H]2CCCN2C(=O)[C@H](NC(=O)[C@H](CCCNC(=N)N)NC(=O)[C@H](CCCNC(=N)N)NC(=O)[C@H](CCCCN=[N+]=[N-])NC(C)=O)CSCSC[C@@H](C(=O)N[C@@H](CCCNC(=N)N)C(=O)N[C@@H](CCCNC(=N)N)C(N)=O)NC(=O)[C@H](C(C)C)NC(=O)[C@@H]2CCCN2C(=O)[C@](C)(CC(=O)O)NC(=O)[C@H](Cc2ccc(O)cc2)NC(=O)[C@H](CO)NC1=O [Compound 19],,
> 6.22,CC[C@H](C)[C@@H]1NC(=O)[C@](C)(Cc2ccccc2)NC(=O)[C@H](CC(C)C)NC(=O)[C@@H]2CCCN2C(=O)[C@H](NC(=O)[C@H](CCCNC(=N)N)NC(=O)[C@H](CCCNC(=N)N)NC(=O)[C@H](CCCCN=[N+]=[N-])NC(C)=O)CSCSC[C@@H](C(=O)N[C@@H](CCCNC(=N)N)C(=O)N[C@@H](CCCNC(=N)N)C(N)=O)NC(=O)[C@H](C(C)C)NC(=O)[C@@H]2CCCN2C(=O)[C@H](CC(=O)O)NC(=O)[C@H](Cc2ccc(O)cc2)NC(=O)[C@H](CO)NC1=O [Compound 16],,
,CC[C@H](C)[C@@H]1NC(=O)[C@H](Cc2ccc(O)cc2)NC(=O)[C@H](CC(C)C)NC(=O)[C@@H]2CCCN2C(=O)[C@H](NC(=O)[C@H](CCCNC(=N)N)NC(=O)[C@H](CCCNC(=N)N)NC(=O)[C@H](CCCCN=[N+]=[N-])NC(C)=O)CSCSC[C@@H](C(=O)N[C@@H](CCCNC(=N)N)C(=O)N[C@@H](CCCNC(=N)N)C(N)=O)NC(=O)[C@H](C(C)C)NC(=O)[C@@H]2CCCN2C(=O)[C@H](CC(=O)O)NC(=O)[C@H](Cc2ccc(O)cc2)NC(=O)[C@H](CO)NC1=O [MP-1687],≥3.7,half-life at 1 µM (in vitro; tissue homogenate): 0.617 h
,CC[C@H](C)[C@@H]1NC(=O)[C@H](Cc2ccc(O)cc2)NC(=O)[C@H](CC(C)C)NC(=O)[C@@H]2CCCN2C(=O)[C@H](NC(=O)[C@H](CCCNC(=N)N)NC(=O)[C@H](CCCCN=[N+]=[N-])NC(C)=O)CSCSC[C@@H](C(=O)N[C@@H](CCCNC(=N)N)C(N)=O)NC(=O)[C@H](C(C)C)NC(=O)[C@@H]2CCCN2C(=O)[C@H](CC(=O)O)NC(=O)[C@H](Cc2ccc(O)cc2)NC(=O)[C@H](CO)NC1=O [MP-9903],>100,"activation of mast cell degranulation (histamine release), in words (rat mast cells): free from this potential liability"
1.18,CC[C@H](C)[C@@H]1NC(=O)[C@H](Cc2ccc(O)cc2)NC(=O)[C@H](CC(C)C)NC(=O)[C@@H]2CCCN2C(=O)[C@H](NC(=O)[C@H](CCCNC(=N)N)NC(=O)[C@H](CCCNC(=N)N)NC(=O)[C@H](CCCCN=[N+]=[N-])NC(C)=O)CSCSC[C@@H](C(=O)N[C@@H](CCCNC(=N)N)C(=O)N[C@@H](CCCNC(=N)N)C(N)=O)NC(=O)[C@H](C(C)C)NC(=O)[C@@H]2CCCN2C(=O)[C@H](CC(=O)O)NC(=O)[C@](C)(Cc2ccc(O)cc2)NC(=O)[C@H](CO)NC1=O [Compound 18],,
2.37,CC[C@H](C)[C@@H]1NC(=O)[C@H](Cc2ccc(O)cc2)NC(=O)[C@H](CC(C)C)NC(=O)[C@]2(C)CCCN2C(=O)[C@H](NC(=O)[C@H](CCCNC(=N)N)NC(=O)[C@H](CCCNC(=N)N)NC(=O)[C@H](CCCCN=[N+]=[N-])NC(C)=O)CSCSC[C@@H](C(=O)N[C@@H](CCCNC(=N)N)C(=O)N[C@@H](CCCNC(=N)N)C(N)=O)NC(=O)[C@H](C(C)C)NC(=O)[C@@H]2CCCN2C(=O)[C@H](CC(=O)O)NC(=O)[C@H](Cc2ccc(O)cc2)NC(=O)[C@H](CO)NC1=O [Compound 14],,
1.9,CC[C@H](C)[C@@H]1NC(=O)[C@H](Cc2ccc(O)cc2)NC(=O)[C@](C)(CC(C)C)NC(=O)[C@@H]2CCCN2C(=O)[C@H](NC(=O)[C@H](CCCNC(=N)N)NC(=O)[C@H](CCCNC(=N)N)NC(=O)[C@H](CCCCN=[N+]=[N-])NC(C)=O)CSCSC[C@@H](C(=O)N[C@@H](CCCNC(=N)N)C(=O)N[C@@H](CCCNC(=N)N)C(N)=O)NC(=O)[C@H](C(C)C)NC(=O)[C@@H]2CCCN2C(=O)[C@H](CC(=O)O)NC(=O)[C@H](Cc2ccc(O)cc2)NC(=O)[C@H](CO)NC1=O [Compound 15],,
,"N#CC(=C(/N)Sc1ccccc1N)/C(C#N)=C(/N)Sc1ccccc1N [Compound U0126, reference compound]",,inhibition of MAPK signaling in A375 [1]: inhibited MAPK signaling; inhibition of MAPK signaling in SK-MEL-28 [2]: inhibited MAPK signaling
,CC[C@H](C)[C@@H]1NC(=O)[C@H](Cc2ccc(O)cc2)NC(=O)[C@H](CC(C)C)NC(=O)[C@@H]2CCCN2C(=O)[C@H](NC(=O)[C@H](CCCNC(=N)N)NC(=O)[C@H](CCCNC(=N)N)NC(=O)[C@H](CCCNC(=N)N)NC(=O)[C@H](CCCCN=[N+]=[N-])NC(C)=O)CSCSC[C@@H](C(=O)N[C@@H](CCCNC(=N)N)C(=O)N[C@@H](CCCNC(=N)N)C(=O)N[C@@H](CCCNC(=N)N)C(N)=O)NC(=O)[C@H](C(C)C)NC(=O)[C@@H]2CCCN2C(=O)[C@H](CC(=O)O)NC(=O)[C@H](Cc2ccc(O)cc2)NC(=O)[C@H](CO)NC1=O [Compound 23],≥0.14,
2,CC[C@H](C)[C@@H]1NC(=O)[C@H](Cc2ccc(O)cc2)NC(=O)[C@H](CC(C)C)NC(=O)[C@@H]2CCCN2C(=O)[C@H](NC(=O)[C@H](CCCNC(=N)N)NC(=O)[C@H](CCCNC(=N)N)NC(=O)[C@H](CCCCN=[N+]=[N-])NC(C)=O)CSCSC[C@@](C)(C(=O)N[C@@H](CCCNC(=N)N)C(=O)N[C@@H](CCCNC(=N)N)C(N)=O)NC(=O)[C@H](C(C)C)NC(=O)[C@@H]2CCCN2C(=O)[C@H](CC(=O)O)NC(=O)[C@H](Cc2ccc(O)cc2)NC(=O)[C@H](CO)NC1=O [Compound 22],,
2.23,CC[C@H](C)[C@@H]1NC(=O)[C@H](Cc2ccc(O)cc2)NC(=O)[C@H](CC(C)C)NC(=O)[C@@H]2CCCN2C(=O)[C@H](NC(=O)[C@H](CCCNC(=N)N)NC(=O)[C@H](CCCNC(=N)N)NC(=O)[C@H](CCCCN=[N+]=[N-])NC(C)=O)CSCSC[C@@H](C(=O)N[C@@H](CCCNC(=N)N)C(=O)N[C@@H](CCCNC(=N)N)C(N)=O)NC(=O)[C@H](C(C)C)NC(=O)[C@]2(C)CCCN2C(=O)[C@H](CC(=O)O)NC(=O)[C@H](Cc2ccc(O)cc2)NC(=O)[C@H](CO)NC1=O [Compound 20],,
,CC[C@H](C)[C@@H]1NC(=O)[C@H](Cc2ccc(O)cc2)NC(=O)[C@H](CC(C)C)NC(=O)[C@@H]2CCCN2C(=O)[C@H](NC(=O)[C@H](CCCCN=[N+]=[N-])NC(C)=O)CSCSC[C@@H](C(N)=O)NC(=O)[C@H](C(C)C)NC(=O)[C@@H]2CCCN2C(=O)[C@H](CC(=O)O)NC(=O)[C@H](Cc2ccc(O)cc2)NC(=O)[C@H](CO)NC1=O [Compound 25],>100,"activation of mast cell degranulation (histamine release), in words (rat mast cells): free from this potential liability"
,CC[C@H](C)[C@@H]1NC(=O)[C@H](Cc2ccc(O)cc2)NC(=O)[C@H](CC(C)C)NC(=O)[C@@H]2CCCN2C(=O)[C@H](NC(=O)[C@H](CCCNC(=N)N)NC(=O)[C@H](CCCNC(=N)N)NC(=O)[C@H](CCCNC(=N)N)NC(=O)[C@H](CCCNC(=N)N)NC(=O)[C@H](CCCCN=[N+]=[N-])NC(C)=O)CSCSC[C@@H](C(=O)N[C@@H](CCCNC(=N)N)C(=O)N[C@@H](CCCNC(=N)N)C(=O)N[C@@H](CCCNC(=N)N)C(=O)N[C@@H](CCCNC(=N)N)C(N)=O)NC(=O)[C@H](C(C)C)NC(=O)[C@@H]2CCCN2C(=O)[C@H](CC(=O)O)NC(=O)[C@H](Cc2ccc(O)cc2)NC(=O)[C@H](CO)NC1=O [MP-6483],≥0.14,"inhibition of KRAS signaling (pERK, pAKT) by Western blot [3]: display cell-based inhibition"
